Laboratory results: patent US20220160714A1, “METHODS FOR TREATING COLORECTAL CANCER” (ICAHN SCHOOL OF MEDICINE AT MOUNT SINAI, priority 2019, published 2022)
Counter-ions that a name gives are not always drawn.

Tested on: patient's personalized Drosophila model 006.1
Assay: Trametinib combination drug screen (Table 4B, experimental pupae numbers)
Format: in vivo
Experimental: After food was solidified, a mixture of experimental and control embryos (at a 1:2 ratio based on expected Mendelian ratios) were aliquoted into each drug/food tube (15 μl/tube). […] Embryos for drug screening were generated from the following cross in cages: w/Y; UAS-006.1; UAS ago^RNAi UAS-apc^RNAi/Stub-gal80-T Xw UAS-dicer2; +; byn-gal4 UAS-GFP tub-gal80^ts/TM6, Hu, Tb. Embryos were obtained from each cage for 4-5 consecutive days by providing daily a fresh apple juice plate with yeast paste. Egg lays were performed at 22° C. to minimize transgene expression during embryogenesis to prevent embryonic defects or lethality that could not potentially be rescued by drug feeding. After embryos were aliquoted, drug tubes were transferred to 25° C. to induce transgene expression. After 2 weeks, the number of surviving experimental pupae (EP) were counted in each tube.
DMSO and Trametinib alone served as controls. […] Statistical analysis was performed as described above.

[1] = drug screened in combination with trametinib
[2] = drug screened in combination with trametinib, mean of 8 replicates

SMILES	EP (raw experimental pupae numbers), replicate 1 [1]	EP (raw experimental pupae numbers), replicate 2 [1]	EP (raw experimental pupae numbers), replicate 3 [1]	EP (raw experimental pupae numbers), replicate 4 [1]	EP (raw experimental pupae numbers), replicate 5 [1]	EP (raw experimental pupae numbers), replicate 6 [1]	EP (raw experimental pupae numbers), replicate 7 [1]	EP (raw experimental pupae numbers), replicate 8 [1]	EP mean [2]	EP mean (in vivo)	EP (raw experimental pupae numbers), replicate 1 (in vivo)	EP (raw experimental pupae numbers), replicate 2 (in vivo)	EP (raw experimental pupae numbers), replicate 3 (in vivo)	EP (raw experimental pupae numbers), replicate 4 (in vivo)	EP (raw experimental pupae numbers), replicate 5 (in vivo)	EP (raw experimental pupae numbers), replicate 6 (in vivo)	EP (raw experimental pupae numbers), replicate 7 (in vivo)	EP (raw experimental pupae numbers), replicate 8 (in vivo)
O=C1CCc2ccc(OCCCCN3CCN(c4cccc(Cl)c4Cl)CC3)cc2N1 [aripiprazole]	0	0	1	0	0	2	1	2	0.75	–	–	–	–	–	–	–	–	–
CN1[C@@H]2CC[C@H]1C[C@@H](OC(c1ccccc1)c1ccccc1)C2 [benztropine]	0	0	4	2	3	1	0	3	1.652	–	–	–	–	–	–	–	–	–
O=c1ccc2ccc(OCCCCN3CCN(c4cccc5sccc45)CC3)cc2[nH]1 [brexpiprazole]	0	0	1	1	2	0	3	1	1	–	–	–	–	–	–	–	–	–
CCC[C@@H]1CC(=O)N([C@@H](CC)C(N)=O)C1 [brivaracetam]	0	0	2	0	2	1	1	1	–	0.875	–	–	–	–	–	–	–	–
CCN(CC)CCNC(C(=O)OCCC(C)C)c1ccccc1 (stereo not drawn) [camylofine dihydrochloride]	0	0	1	0	6	1	0	0	1	–	–	–	–	–	–	–	–	–
CN(C)C(=O)N[C@H]1CC[C@H](CCN2CCN(c3cccc(Cl)c3Cl)CC2)CC1 [cariprazine hydrochloride]	2	0	0	2	2	0	0	3	1.125	–	–	–	–	–	–	–	–	–
CN(C)CCCN1c2ccccc2Sc2ccc(Cl)cc21.Cl [chloipromazine HCl]	0	1	1	1	1	2	0	3	–	1.125	–	–	–	–	–	–	–	–
C[C@H](CCC(=O)O)[C@H]1CC[C@H]2[C@@H]3[C@H](O)C[C@@H]4C[C@H](O)CC[C@]4(C)[C@H]3C[C@H](O)[C@]12C [cholic acid]	–	–	–	–	–	–	–	–	–	1.375	1	0	2	1	1	1	3	2
CN1CCN(C2=Nc3cc(Cl)ccc3Nc3ccccc32)CC1 [clozapine]	1	0	0	0	3	2	1	2	1.125	–	–	–	–	–	–	–	–	–
O=C(c1ccc(F)c(F)c1Nc1ccc(I)cc1F)N1CC(O)([C@@H]2CCCCN2)C1 [cobimetinib]	1	1	2	0	1	0	0	0	0.625	–	–	–	–	–	–	–	–	–
CN1CCC(=C2c3ccccc3C=Cc3ccccc32)CC1 [cyproheptadine HCl]	0	0	0	0	3	0	1	3	0.875	–	–	–	–	–	–	–	–	–
CCOc1ccc(Cc2cc([C@@H]3O[C@H](CO)[C@@H](O)[C@H](O)[C@H]3O)ccc2Cl)cc1 [dapagliflozin]	0	1	1	1	3	5	2	0	1.625	–	–	–	–	–	–	–	–	–
OC[C@H]1O[C@@H](c2ccc(Cl)c(Cc3ccc(O[C@H]4CCOC4)cc3)c2)[C@H](O)[C@@H](O)[C@@H]1O [empagliflozin]	4	0	0	2	5	2	1	2	2	–	–	–	–	–	–	–	–	–
NC(N)=Nc1nc(CSCCC(N)=NS(N)(=O)=O)cs1 [famotidine]	0	0	0	0	1	2	0	2	–	0.625	–	–	–	–	–	–	–	–
O=c1[nH]c2ccccc2n1CCN1CCN(c2cccc(C(F)(F)F)c2)CC1 [flibanserin]	0	0	3	0	0	0	1	0	0.5	–	–	–	–	–	–	–	–	–
CNCCC(Oc1ccc(C(F)(F)F)cc1)c1ccccc1 (stereo not drawn) [fluoxetine]	2	2	0	0	7	1	0	1	–	1.625	–	–	–	–	–	–	–	–
CC(C)n1c(/C=C/C(O)CC(O)CC(=O)O)c(-c2ccc(F)cc2)c2ccccc21 (stereo not drawn) [fluvastatin]	0	0	0	0	0	0	0	2	0.25	–	–	–	–	–	–	–	–	–
Cc1ccc(C)c(OCCCC(C)(C)C(=O)O)c1 [gemfibrozil]	0	1	0	0	3	0	0	0	0.5	–	–	–	–	–	–	–	–	–
O=C(CCCN1CCC(O)(c2ccc(Cl)cc2)CC1)c1ccc(F)cc1 [haloperidol]	0	0	2	2	2	1	1	1	1.125	–	–	–	–	–	–	–	–	–
CC1Cc2ccccc2N1NC(=O)c1ccc(Cl)c(S(N)(=O)=O)c1 (stereo not drawn) [indapamide]	0	0	1	0	2	2	0	4	1.125	–	–	–	–	–	–	–	–	–
